Results: publication PMC3904261 (British Journal of Pharmacology, 2013)
Bridge positions count the residues as written; N and C are the ends. Ends that are not written are not given here.

Experiments:
[1] = biological target: T1, AMY1(a) receptor (Homo sapiens, UniProt O60894+P30988); assay: cAMP production in Cos 7 cells via the AMY1(a) receptor; assay type: cell-based; conditions: AlphaScreen, means ± SEM, n = 3–6
T1 construct: HA; expressed in transfected cells; host or cells: Cos 7
Method: SK-N-MC cells were grown in DMEM/F12 medium supplemented with 10% fetal calf serum as described previously (Poyner et al., [1998]). […] Production of cAMP in SK-N-MC cells for all analogues except [[…]]-hαCGRP was by a radioreceptor assay, as described previously (Poyner et al., [1998]). […] For [[…]]-hαCGRP, a different clone of SK-N-MC cells was used and cAMP production was measured via AlphaScreen (Perkin Elmer, Wellesley, MA, USA), as described previously ([…] et al., [2010]). This assay was also used to investigate the action of all derivatives at the AMY1(a) receptor and other experiments using Cos 7 cells. […] GraphPad Prism 5.00 or 6.00 (GraphPad Software Inc., San Diego, CA, USA) was used for data fitting. Concentration-response curves were fitted to a sigmoidal function with Hill slope constrained to unity to obtain pEC50 and maximum responses (Emax) values. Displacement curves were analysed to obtain pIC50 values. Schild plots were fitted by linear regression to obtain slope and intercepts. pEC50 and pIC50 values were compared with that of human αCGRP using Dunnett's test with either a normal or repeated measures one-way ANOVA, as appropriate.

[2] = biological target: T2, CGRP receptor (Homo sapiens, UniProt O60894+Q16602); assay: β-arrestin 2 translocation in CHO-K1 cells (PathHunter eXpress); assay type: cell-based; parameters: host or cells: CHO-K1 (PathHunter eXpress β-arrestin kit)
Method: (§1) GraphPad Prism 5.00 or 6.00 (GraphPad Software Inc., San Diego, CA, USA) was used for data fitting. Concentration–response curves were fitted to a sigmoidal function with Hill slope constrained to unity to obtain pEC50 and maximum responses (Emax) values. Displacement curves were analysed to obtain pIC50 values. Schild plots were fitted by linear regression to obtain slope and intercepts. pEC50 and pIC50 values were compared with that of human αCGRP using Dunnett's test with either a normal or repeated measures one-way ANOVA, as appropriate.

[3] = biological target: T2, CGRP receptor; assay: Displacement of 125I-CGRP binding to SK-N-MC cell membranes; parameters: relative expression levels of the receptors (endogenous vs. overexpressed); endogenous in cells; host or cells: SK-N-MC cells (ECACC clone; ATCC clone for [Cys5]-CGRP); conditions: Binding (SK-N-MC) pKi CGRP analogue, 125I-CGRP displacement, SK-N-MC cell membranes; means ± SEM, n = 3–6; [Cys5] on a different batch of SK-N-MC cells
Method: as §1

[4] = biological target: T2, CGRP receptor; assay: cAMP production in SK-N-MC cells; assay type: cell-based; parameters: relative expression levels of the receptors (endogenous vs. overexpressed); endogenous in cells; host or cells: SK-N-MC cells (ECACC clone; ATCC clone for [Cys5]-CGRP); conditions: radioreceptor assay, approx. 10 min, means ± SEM, n = 3–6
Method: Production of cAMP in SK-N-MC cells for all analogues except [[…]]-hαCGRP was by a radioreceptor assay, as described previously (Poyner et al., [1998]). […] For [[…]]-hαCGRP, a different clone of SK-N-MC cells was used and cAMP production was measured via AlphaScreen (Perkin Elmer, Wellesley, MA, USA), as described previously ([…] et al., [2010]). This assay was also used to investigate the action of all derivatives at the AMY1(a) receptor and other experiments using Cos 7 cells. […] GraphPad Prism 5.00 or 6.00 (GraphPad Software Inc., San Diego, CA, USA) was used for data fitting. Concentration-response curves were fitted to a sigmoidal function with Hill slope constrained to unity to obtain pEC50 and maximum responses (Emax) values. Displacement curves were analysed to obtain pIC50 values. Schild plots were fitted by linear regression to obtain slope and intercepts. pEC50 and pIC50 values were compared with that of human αCGRP using Dunnett's test with either a normal or repeated measures one-way ANOVA, as appropriate.

[5] = biological target: AMY_(1(a)) receptor (human HA-tagged CT (a) receptor with human myc-tagged RAMP1) (human) (UniProt O60894)
[6] = biological target: T3, CGRP receptor (calcitonin receptor-like receptor in complex with receptor activity-modifying protein 1) (human (endogenous in SK-N-MC), UniProt Q16602 23-461; O60894 27-148); assay: cell-based or functional assay
[7] = biological target: T3, CGRP receptor (calcitonin receptor-like …); assay: radioligand binding; displacement of ^125I-CGRP from SK-N-MC cell membranes by unlabelled peptides, microcentrifugation-based binding assay; [Cys^5]-CGRP and its control on another batch of SK-N-MC cells; conditions: one partner purified
[8] = 2 h stimulation, means ± SEM, n = 3

T1 sequence (P30988 25-474): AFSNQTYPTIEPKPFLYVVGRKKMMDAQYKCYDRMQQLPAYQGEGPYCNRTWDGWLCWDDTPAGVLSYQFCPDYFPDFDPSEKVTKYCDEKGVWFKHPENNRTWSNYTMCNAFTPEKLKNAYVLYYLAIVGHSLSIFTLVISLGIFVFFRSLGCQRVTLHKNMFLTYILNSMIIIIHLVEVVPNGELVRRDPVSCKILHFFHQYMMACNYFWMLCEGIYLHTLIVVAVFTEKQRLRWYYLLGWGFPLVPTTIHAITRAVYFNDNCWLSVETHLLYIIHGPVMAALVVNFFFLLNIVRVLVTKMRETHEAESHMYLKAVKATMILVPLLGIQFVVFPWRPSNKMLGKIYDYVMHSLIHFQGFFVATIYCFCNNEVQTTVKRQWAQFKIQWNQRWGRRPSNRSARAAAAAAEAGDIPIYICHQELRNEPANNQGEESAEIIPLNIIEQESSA
T1 sequence (O60894 27-148): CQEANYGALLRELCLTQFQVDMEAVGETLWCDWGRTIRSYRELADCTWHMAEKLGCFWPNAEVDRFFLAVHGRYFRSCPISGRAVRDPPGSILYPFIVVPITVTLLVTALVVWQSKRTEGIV
Chain of AMY_(1(a)) receptor (human HA-tagged CT (a) receptor with human myc-tagged RAMP1) (human) (O60894 whole entry, looked up): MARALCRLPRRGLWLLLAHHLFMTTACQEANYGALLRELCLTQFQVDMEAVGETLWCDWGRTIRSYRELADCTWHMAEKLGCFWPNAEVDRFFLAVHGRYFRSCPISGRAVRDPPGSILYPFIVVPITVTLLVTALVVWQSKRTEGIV
T3 sequence (Q16602 23-461, chain 1 of 2): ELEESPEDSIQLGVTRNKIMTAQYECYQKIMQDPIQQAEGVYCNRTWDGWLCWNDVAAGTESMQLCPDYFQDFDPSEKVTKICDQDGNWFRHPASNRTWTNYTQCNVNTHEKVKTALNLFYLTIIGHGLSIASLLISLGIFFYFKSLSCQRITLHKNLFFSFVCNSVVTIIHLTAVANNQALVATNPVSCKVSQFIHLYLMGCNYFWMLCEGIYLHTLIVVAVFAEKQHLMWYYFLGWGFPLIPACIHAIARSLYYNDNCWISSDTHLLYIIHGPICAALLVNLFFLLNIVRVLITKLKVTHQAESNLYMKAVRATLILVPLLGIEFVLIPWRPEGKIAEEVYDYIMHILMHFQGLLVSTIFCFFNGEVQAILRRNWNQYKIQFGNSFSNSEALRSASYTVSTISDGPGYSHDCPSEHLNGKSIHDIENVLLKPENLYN
T3 sequence (O60894 27-148, chain 2 of 2): as the sequence (O60894 27-148) above
T2 sequence (Q16602 23-461): as the sequence (Q16602 23-461, chain 1 of 2) above
T2 sequence (O60894 27-148): as the sequence (O60894 27-148) above

Ki [3] [nM]	AMY1(a) receptor-stimulated cAMP pEC50 CGRP analogue [1]	β-Arrestin (CHO-K1) pEC50 CGRP analogue [2, 8]	cAMP (SK-N-MC) pEC50 CGRP analogue [4]	Emax (% CGRP), cAMP production in Cos 7 cells with the AMY (1(a)) receptor [5] [% CGRP]	pEC50, cAMP production in Cos 7 cells with the AMY (1(a)) receptor [5]	Emax (% CGRP), cAMP production in SK-N-MC cells [6] [% CGRP]	Emax (% CGRP), β-arrestin 2 translocation in CHO-K1 cells expressing the human CGRP receptor [6] [% CGRP]	pEC50, cAMP production in SK-N-MC cells [6]	pEC50, β-arrestin 2 translocation in CHO-K1 cells expressing the human CGRP receptor [6]	pKi [7]	Molecule	further results
0.759											CC(C)C[C@H](NC(=O)CNC(=O)[C@H](C)NC(=O)[C@H](CC(C)C)NC(=O)[C@H](CCCNC(=N)N)NC(=O)[C@H](Cc1c[nH]cn1)NC(=O)[C@@H](NC(=O)[C@@H](NC(=O)[C@@H]1CSSC[C@H](NC(=O)[C@H](C)N)C(=O)N[C@@H](CC(=O)O)C(=O)N[C@@H]([C@@H](C)O)C(=O)N[C@@H](C)C(=O)N[C@@H](CO)C(=O)N1)C(C)C)[C@@H](C)O)C(=O)N[C@@H](CC(C)C)C(=O)N[C@@H](CO)C(=O)N[C@@H](CCCNC(=N)N)C(=O)N[C@@H](CO)C(=O)NCC(=O)NCC(=O)N[C@H](C(=O)N[C@H](C(=O)N[C@@H](CCCCN)C(=O)N[C@@H](CC(N)=O)C(=O)N[C@@H](CC(N)=O)C(=O)N[C@@H](Cc1ccccc1)C(=O)N[C@H](C(=O)N1CCC[C@H]1C(=O)N[C@H](C(=O)N[C@@H](CC(N)=O)C(=O)N[C@H](C(=O)NCC(=O)N[C@@H](CO)C(=O)N[C@@H](CCCCN)C(=O)N[C@@H](C)C(=O)N[C@@H](Cc1ccccc1)C(N)=O)C(C)C)[C@@H](C)O)C(C)C)C(C)C)C(C)C [[Ser^6]]	EC50 ([1]; AMY1(a) receptor-stimulated cAMP pEC50 CGRP analogue): 0.562 nM; AMY1(a) receptor-stimulated cAMP Emax (% CGRP) CGRP analogue [1]: 76 ± 19 % CGRP; β-Arrestin (CHO-K1) Emax (% CGRP) CGRP analogue [2, 8]: 57.3 ± 4.8 % CGRP; Emax ([2]; CHO-K1, CHO-K1 cells, compared with CGRP, read-out: reduction of Emax, β-arrestin 2 translocation): 40%; EC50 ([2]; β-Arrestin (CHO-K1) pEC50 CGRP analogue, 2 h stimulation, means ± SEM, n = 3): 8.51 nM; EC50 ([4]; cAMP (SK-N-MC) pEC50 CGRP analogue): 53.7 nM; cAMP (SK-N-MC) Emax (% CGRP) CGRP analogue [4]: 100 ± 10 % CGRP
17.4	Undetectable	Undetectable	Undetectable								CC(C)C[C@H](NC(=O)CNC(=O)[C@H](C)NC(=O)[C@H](CC(C)C)NC(=O)[C@H](CCCNC(=N)N)NC(=O)[C@H](Cc1c[nH]cn1)NC(=O)[C@@H](NC(=O)[C@@H](NC(=O)[C@@H]1CSSC[C@H](NC(=O)[C@H](C)N)C(=O)N[C@@H](CC(=O)O)C(=O)N[C@@H]([C@@H](C)O)C(=O)N[C@@H](C)C(=O)N[C@@H](CCCCN)C(=O)N1)C(C)C)[C@@H](C)O)C(=O)N[C@@H](CC(C)C)C(=O)N[C@@H](CO)C(=O)N[C@@H](CCCNC(=N)N)C(=O)N[C@@H](CO)C(=O)NCC(=O)NCC(=O)N[C@H](C(=O)N[C@H](C(=O)N[C@@H](CCCCN)C(=O)N[C@@H](CC(N)=O)C(=O)N[C@@H](CC(N)=O)C(=O)N[C@@H](Cc1ccccc1)C(=O)N[C@H](C(=O)N1CCC[C@H]1C(=O)N[C@H](C(=O)N[C@@H](CC(N)=O)C(=O)N[C@H](C(=O)NCC(=O)N[C@@H](CO)C(=O)N[C@@H](CCCCN)C(=O)N[C@@H](C)C(=O)N[C@@H](Cc1ccccc1)C(N)=O)C(C)C)[C@@H](C)O)C(C)C)C(C)C)C(C)C [[Lys^6]]	
31.6	Undetectable	Undetectable	Undetectable								CC(C)C[C@H](NC(=O)CNC(=O)[C@H](C)NC(=O)[C@H](CC(C)C)NC(=O)[C@H](CCCNC(=N)N)NC(=O)[C@H](Cc1c[nH]cn1)NC(=O)[C@@H](NC(=O)[C@@H](NC(=O)[C@@H]1CSSC[C@H](NC(=O)[C@H](C)N)C(=O)N[C@@H](CC(=O)O)C(=O)N[C@@H]([C@@H](C)O)C(=O)N[C@@H](C)C(=O)N[C@@H](CC(=O)O)C(=O)N1)C(C)C)[C@@H](C)O)C(=O)N[C@@H](CC(C)C)C(=O)N[C@@H](CO)C(=O)N[C@@H](CCCNC(=N)N)C(=O)N[C@@H](CO)C(=O)NCC(=O)NCC(=O)N[C@H](C(=O)N[C@H](C(=O)N[C@@H](CCCCN)C(=O)N[C@@H](CC(N)=O)C(=O)N[C@@H](CC(N)=O)C(=O)N[C@@H](Cc1ccccc1)C(=O)N[C@H](C(=O)N1CCC[C@H]1C(=O)N[C@H](C(=O)N[C@@H](CC(N)=O)C(=O)N[C@H](C(=O)NCC(=O)N[C@@H](CO)C(=O)N[C@@H](CCCCN)C(=O)N[C@@H](C)C(=O)N[C@@H](Cc1ccccc1)C(N)=O)C(C)C)[C@@H](C)O)C(C)C)C(C)C)C(C)C [[Asp^6]]	
				108	8.9	116	95	8.27	8.43	9.54	ACCTATCVTHRLAGLLSRSGGVVKNNFVPTNVGSKAF-NH2 (disulfide 2-7; N-terminus assumed; SMILES CC(C)C[C@H](NC(=O)CNC(=O)[C@H](C)NC(=O)[C@H](CC(C)C)NC(=O)[C@H](CCCNC(=N)N)NC(=O)[C@H](Cc1c[nH]cn1)NC(=O)[C@@H](NC(=O)[C@@H](NC(=O)[C@@H]1CSSC[C@H](NC(=O)[C@H](C)N)C(=O)N[C@@H](CS)C(=O)N[C@@H]([C@@H](C)O)C(=O)N[C@@H](C)C(=O)N[C@@H]([C@@H](C)O)C(=O)N1)C(C)C)[C@@H](C)O)C(=O)N[C@@H](CC(C)C)C(=O)N[C@@H](CO)C(=O)N[C@@H](CCCNC(=N)N)C(=O)N[C@@H](CO)C(=O)NCC(=O)NCC(=O)N[C@H](C(=O)N[C@H](C(=O)N[C@@H](CCCCN)C(=O)N[C@@H](CC(N)=O)C(=O)N[C@@H](CC(N)=O)C(=O)N[C@@H](Cc1ccccc1)C(=O)N[C@H](C(=O)N1CCC[C@H]1C(=O)N[C@H](C(=O)N[C@@H](CC(N)=O)C(=O)N[C@H](C(=O)NCC(=O)N[C@@H](CO)C(=O)N[C@@H](CCCCN)C(=O)N[C@@H](C)C(=O)N[C@@H](Cc1ccccc1)C(N)=O)C(C)C)[C@@H](C)O)C(C)C)C(C)C)C(C)C) [[Cys^3]-CGRP]	
				76	9.25	100	57.3	7.27	8.07	9.12	ACDTASCVTHRLAGLLSRSGGVVKNNFVPTNVGSKAF-NH2 (disulfide 2-7) [[Ser^6]-CGRP]	
